From patent US20220143116A1 (priority 2019, published 2022)
Values joined by “and” are separate entries in the source; they are usually repeats but may differ in a detail not shown here. Equal entries are not always repeated.

Tests used:
[1] = system: B16TK-hAPOBEC3B subcutaneous tumors; parameters: species or system C57BL/6 mice; settings: mouse, in vivo
[2] = system: B16TK (scrambled shRNA) or B16TK (shRNA APOBEC3) tumors; parameters: species or system C57Bl/6 mice; settings: mouse, in vivo
[3] = system: B16TK cells; type: cell-based, murine
[4] = system: B16TK-hAPOBEC3B tumors; parameters: species or system C57BL/6 mice; settings: mouse, in vivo

Nc1nc(O)c2ncn(COC(CO)CO)c2n1 [ganciclovir]
tumor growth following GCV treatment [1]: grew significantly more quickly
long term survivors [2]: 0/7 and 4/7
sensitivity of B16TK cells to treatment [3]: sensitive
tumor growth following GCV treatment [4]: grew significantly more quickly
